Key:
[1] = Differential scanning calorimetry (melt enthalpy, undercooling, percent solids index); assay type: physicochemical; settings: DSC, heating from solid, 5° C./min
Text: It is known in the art that alkoxylation has the potential to decrease the pour point of an ester. However, the current disclosure has observed a surprising decrease in the melting enthalpy and a marked reduction in the degree of undercooling. The degree of undercooling for a base oil indicates the increase in temperature required to fully melt an oil after crystallization has started. The degree of undercooling for the purpose of this disclosure is described as the difference between the temperature at which a material is fully melted on heating and the temperature at which the material begins to crystallize on cooling [Tmelt−Tonset=Undercool] as determined by differential scanning calorimetry (DSC) with a heating and cooling rate of 5° C./min. “Undercooling” and “degree of undercooling” can be used synonymously.
Oils with a lower undercooling require a smaller increase in temperature after crystallization to melt the oil and erase the oil “memory.” Shelby and Miller teach the concept of oil “memory” as a result of gels or crystals not fully dissociating even when above the melt point, so that on a second cooling cycle, gelation or crystal growth occurs much more quickly and at higher temperatures. If two oils have the same crystallization onset temperature, the oil with the lower undercooling will fully melt at a lower temperature and erase the oil “memory”. […] The effect of this is that glycerol esters and polyol esters must be heated substantially above the onset of crystallization in order to melt the oil before use. […] At 5° C. above the onset of crystallization temperature, 100% of Ex. 92 (glycerol ester) is solid; 31% of Ex 93 (PG3 ester) is solid; 18% of Ex. 94 (PG10 ester) is solid; and 81% of Ex 90 (TMP ester) is solid.
Examples 90, 92-94: Reductions in the enthalpy of melting are observed for propoxylated glycerol esters and TMP esters relative to the glycerol ester, see FIG. 19, Table 5, FIG. 20, Table 6 and FIG. 21, Table 7. […] DSC analysis was conducted within the temperature range −80° C. to 40° C. with cyclic cooling and heating rates of 5° C./min. The DSC melt thermograms for each material were integrated as a function of temperature and normalized to the overall melt enthalpy to generate a percent solids index that is the basis for the data in the Solids @ Onset+T columns. The data under Solids @ Onset+5 and +10° C. are indicative of the percent of solids in a base oil when heating from a fully solid or crystalline state. […] Both glycerol and TMP esters show higher degrees of undercooling and higher melt enthalpies compared to analogous propoxylated glycerol esters, see FIG. 20, Table 6.

[2] = literature value, cited from earlier work

| percent solid at 5° C. above the onset of crystallization temperature [1] | percent solid at 10° C. above the crystallization onset temperature ([1]; listed as Ex 90) | percent solid at 10° C. above the crystallization onset temperature ([1]; listed as Ex. 92) | Compound | percent solid at 10° C. above the crystallization onset temperature [1] | Oxidative Onset Temperature (OOT) after formulation ([2]; formulated) | Oxidative Onset Temperature (OOT) ([2]; unformulated) |
| --- | --- | --- | --- | --- | --- | --- |
| 81% | 46% | – | CCCCCCCCCCCC(=O)OCC(CC)(COC(=O)CCCCCCCCCCC)COC(=O)CCCCCCCCCCC [Example 90] | significant amounts of crystalline solids | – | – |
| 100% | – | not melted at all | CCCCCCCCCCCC(=O)OCC(COC(=O)CCCCCCCCCCC)OC(=O)CCCCCCCCCCC [Example 92] | significant amounts of crystalline solids | – | – |
| – | – | – | CCCCCCCC/C=C\CCCCCCCC(=O)OCC(CC)(COC(=O)CCCCCCC/C=C\CCCCCCCC)COC(=O)CCCCCCC/C=C\CCCCCCCC [TMP trioleates] | – | up to 206 °C | 156 °C |

Reference: patent publication US11680218B2, “Biodegradable lubricant with tailored hydrolytic stability and improved thermal stability through alkoxylation of glycerol” (Tetramer Technologies, LLC, priority 2018, dated 2023)
